# From patent US7626021B2, “Fused ring heterocycle kinase modulators” (SGX Pharmaceuticals, Inc., priority 2004, dated 2009)
# Target: T1, Abl Y393F (Mus musculus, UniProt P00520, Y393F)
# T1 construct: 0.4 μg/ml Abl kinase domain; Met-Ser-Leu (vector-derived) (N); made in house
# T1 sequence (P00520 242-493 Y393F limits assumed): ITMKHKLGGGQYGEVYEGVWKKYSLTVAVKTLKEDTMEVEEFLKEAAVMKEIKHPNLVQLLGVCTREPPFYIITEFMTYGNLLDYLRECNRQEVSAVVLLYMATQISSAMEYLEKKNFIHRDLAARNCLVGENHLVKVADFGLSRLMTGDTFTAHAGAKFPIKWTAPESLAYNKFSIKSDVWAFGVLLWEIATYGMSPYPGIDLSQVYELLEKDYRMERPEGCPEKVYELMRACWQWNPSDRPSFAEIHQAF
# Assay: Abl Y393F kinase enzyme assay
# Format: biochemical
# Details: read-out: Abl_Y393F IC50
# Source text: Although the first of these examples uses the kinase domain of a mutant form of Abl T315I (“Abl T315I KD”), the kinase assays may use various forms of mutant and wild type enzymes, including, for example, the entire protein, the kinase domain, or a portion thereof (e.g. Abl Y393F). The kinases used in the assays may also be of varying phosphorylation states. In the c-Abl example, a mutant kinase at a zero phosphorylation state was used.
# In addition to the c-Abl PK/LDH coupled assay (above), homogeneous luminescence-based inhibitor screening assays were developed for c-Abl, MET, AurA, and PDK1 kinases (among others). Each of these assays made use of an ATP depletion assay (Kinase-Glo™, Promega Corporation, Madison, Wis.) to quantitate kinase activity. The Kinase-Glo™ format uses a thermostable luciferase to generate luminescent signal from ATP remaining in solution following the kinase reaction. The luminescent signal is inversely correlated with the amount of kinase activity.
# cAbl Luminescence-Based Enzyme Assay
# Materials: Abl substrate peptide=EAIYAAPFAKKK SEQ ID NO:1)-OH (Biopeptide, San Diego, Calif.), ATP (Sigma Cat#A-3377, FW=551), HEPES buffer, pH 7.5, Bovine serum albumin (BSA) (Roche 92423420), MgCl2, Staurosporine (Streptomyces sp. Sigma Cat#85660-1MG), white Costar 384-well flat-bottom plate (VWR Cat#29444-088), Abl kinase (see below), Kinase-Glo™ (Promega Cat#V6712).
# Stock Solutions: 10 mM Abl substrate peptide (13.4 mg/ml in miliQH2O) stored at −20° C.; 100 mM HEPES buffer, pH 7.5 (5 ml 1M stock+45 ml miliQH2O); 10 mM ATP (5.51 mg/ml in dH2O) stored at −20° C. (diluted […] into total of 10 ml miliQH2O daily=50 μM ATP working stock); 1% BSA (1 g BSA in 100 ml 0.1 M HEPES, pH 7.5, stored at −20° C.), 100 mM MgCl2; 200 μM Staurosporine, 2× Kinase-Glo™ reagent (made fresh or stored at −20° C.).
# Standard Assay Setup for 384-well format (20 μl kinase reaction, 40 μl detection reaction): 10 mM MgCl2; 100 μM Abl substrate peptide; 0.1% BSA; 1 μl test compound (in DMSO); 0.4 μg/ml Abl kinase domain; 10 μM ATP; 100 mM HEPES buffer. Positive controls contained DMSO with no test compound. Negative controls contained 10 μM staurosporine. The kinase reactions were initiated at time t=0 by the addition of ATP. Kinase reactions were incubated at 21° C. for 30 min, then 20 μl of Kinase-Glo™ reagent were added to each well to quench the kinase reaction and initiate the luminescence reaction. After a 20 min incubation at 21° C., the luminescence was detected in a plate-reading luminometer.
row,Compound,IC50
1,O=C(c1cccc(-c2cnc3[nH]nc(-c4ccncc4Cl)c3c2)c1)N1CCOCC1,< 1000 nM
2,COc1ccccc1-c1n[nH]c2ncc(-c3ccc(C(=O)N4CCCCC4)cc3)cc12,1000 to 10000 nM
3,O=C(c1cccc(-c2cnc3[nH]nc(-c4ccc5cc[nH]c5c4)c3c2)c1)N1CCOCC1,< 1000 nM
4,COc1ccccc1-c1c[nH]c2ncc(-c3cccc(C(=O)N(C)C)c3)nc12,< 1000 nM
5,COc1cc(-c2cnc3[nH]nc(-c4ccccc4)c3c2)ccc1O,< 1000 nM
6,COc1ccccc1-c1n[nH]c2ncc(-c3ccc(O)c(C(=O)N4CCOCC4)c3)cc12,< 1000 nM
7,COc1c(F)cccc1-c1n[nH]c2ncc(-c3cccc(C(=O)N4CCOCC4)c3)cc12,< 1000 nM
8,COc1ccccc1-c1cnc2[nH]nc(-c3ccccc3OC)c2c1,< 1000 nM
9,Cc1ccsc1-c1n[nH]c2ncc(-c3cccc(C(=O)N4CCOCC4)c3)cc12,< 1000 nM
10,Cc1cc(F)ccc1-c1n[nH]c2ncc(-c3cccc(C(=O)N4CCOCC4)c3)cc12,< 1000 nM
11,c1ccc(-c2n[nH]c3ncc(-c4cccnc4)cc23)cc1,< 1000 nM
12,COc1ccccc1-c1n[nH]c2ncc(-c3cccc(C(=O)NC(C)C)c3)cc12,< 1000 nM
13,COc1ccccc1-c1n[nH]c2ncc(-c3cccc(S(=O)(=O)NC4CC4)c3)cc12,< 1000 nM
14,COc1cc(-c2cnc3[nH]cc(-c4ccc(C)cc4)c3n2)ccc1O,< 1000 nM
15,COc1ccccc1-c1n[nH]c2ncc(-c3ccc(C(=O)N4CCN(C)CC4)cc3)cc12,< 1000 nM
16,COc1ccccc1-c1n[nH]c2ncc(-c3cnc4[nH]n(C)c(=O)c4c3)cc12,< 1000 nM
17,COc1ccccc1-c1n[nH]c2ncc(-c3cccc(C(=O)N4CCN(C)CC4)c3)cc12,< 1000 nM

row,Compound,IC50
1,COc1ncc(-c2n[nH]c3ncc(-c4cccc(C(=O)N5CCOCC5)c4)cc23)c(OC)n1,< 1000 nM
2,COc1ccccc1-c1n[nH]c2ncc(-c3ccc(C(=O)N4CCCC4)cc3)cc12,< 1000 nM
3,COc1ccccc1-c1n[nH]c2ncc(-c3cccc(C(=O)N4CCN(CCN(C)C)CC4)c3)cc12,< 1000 nM
4,COc1ccccc1-c1n[nH]c2ncc(-c3cccnc3)cc12,< 1000 nM
5,COc1ccccc1-c1n[nH]c2ncc(-c3cccc(C(=O)N4CCCC4)c3)cc12,< 1000 nM
6,O=C(c1cccc(-c2cnc3[nH]nc(-c4cccc5cccnc45)c3c2)c1)N1CCOCC1,< 1000 nM
7,CCN1CCN(C(=O)c2cccc(-c3cnc4[nH]nc(-c5cc(F)ccc5OC)c4c3)c2)CC1,< 1000 nM
8,Oc1cccc(-c2cnc3[nH]nc(-c4ccccc4)c3c2)c1,< 1000 nM
9,CCc1ccccc1-c1n[nH]c2ncc(-c3cccc(C(=O)N4CCOCC4)c3)cc12,< 1000 nM
10,COc1ccccc1-c1n[nH]c2ncc(Br)cc12,< 1000 nM
11,c1ccc(-c2n[nH]c3ncc(-c4ccc5[nH]ccc5c4)cc23)cc1,< 1000 nM
12,COc1ccccc1-c1n[nH]c2ncc(-c3cccc(C(=O)N(C)C)c3)cc12,< 1000 nM
13,COc1ccccc1-c1n[nH]c2ncc(-c3ccc(C(=O)N4CCOCC4)cc3)cc12,< 1000 nM
14,COc1ccccc1-c1n[nH]c2ncc(-c3cccc(C(=O)N4CCC(CO)CC4)c3)cc12,< 1000 nM
15,COc1ccccc1-c1n[nH]c2ncc(-c3ccc(C(=O)NC4CC4)cc3)cc12,< 1000 nM
16,Cn1ccc2cc(-c3n[nH]c4ncc(-c5cccc(C(=O)N6CCOCC6)c5)cc34)ccc21,< 1000 nM
17,CCOc1ccccc1-c1n[nH]c2ncc(-c3cccc(C(=O)N4CCOCC4)c3)cc12,< 1000 nM
